Patent US20240285717A1, “COMPOSITION FOR PREVENTING OR TREATING MUSCULAR DISEASE CONTAINING PONCIRI FRUCTUS EXTRACT” (KOREA INSTITUTE OF SCIENCE AND TECHNOLOGY, priority 2023, published 2024)

Tests used:
C2C12 myotube cells [1] = experiment: Cell viability of C2C12 myotube cells with dexamethasone-induced myoatrophy; format: cell-based, mouse; conditions: for viability of myotube cells reduced by dexamethasone treatment, by isolated compounds: each compound at 20 uM, FIG. 13
Procedure: Cell culture and differentiation of myoblasts: C2C12 mouse (CRL1772; American type cell collection, USA)-derived myoblasts were cultured in Dulbecco's Modified Eagle's Medium (DMEM) medium supplemented with 10 (v/v) % FBS, and after reaching 90% confluence, they were transferred to DMEM medium containing 2 (v/v) % horse serum and cultured for 7 days to differentiate into myotube cells.
After differentiating C2C12 myoblasts into myotube cells, myoatrophy was induced by treatment with 100 µM of Dexamethasone for 24 hours, and then the myoatrophy-induced myotube cells were treated with Ponciri Fructus extract (PT) at concentrations of 5, 10, and 20 ug/ml, respectively, to determine the effect of alleviating myoatrophy.
The effect of each fraction (concentrations 5 ug/ml, 10 ug/ml, 20 ug/ml, 40 ug/ml) prepared according to Example 2 on the viability of […] in which myoatrophy was induced by dexamethasone was analyzed. The assay was performed in the same manner as in Example 1.
The effect of the compounds isolated according to Example 3 (each at a concentration of 20 uM) on the viability of myotube cells in which myoatrophy was induced by dexamethasone was analyzed. The assay was performed in the same manner as in Example 1.
The assay was performed in the same manner as in Example 1.

C2C12 myotube cells [2] = experiment: RT-qPCR of myotube cell differentiation and exercise performance-related gene expression in dexamethasone-treated C2C12 myotube cells; format: cell-based, mouse; conditions: auraptene treatment after dexamethasone
Procedure: C2C12 mouse-derived […] treated with dexamethasone 10 µM were washed twice with PBS, and total RNA was extracted according to the user-recommended protocol of an RNA extraction kit (GeneAll RNA isolation kit, Seoul, South Korea). cDNA was synthesized from the extracted RNA and subjected to real time-quantitative polymerase chain reaction (RT-qPCR). PCR analysis was performed according to the user-recommended cycling conditions of analyzer (Applied Biosystems 7900 HT thermal cycler, Applied Biosystems), and to determine the expression level of each mRNA, fold change values were calculated relative to the control, using beta-actin as an endogeneous control, and relative expression amounts were compared. The primer sequences are as follows Myf5 forward primer: TCCAGGTATTCCCACCTGCT (sequence 1), Myf5 reverse primer: CACCTGGAGCGGATGAAGAAGAAC (sequence 2); Myf6 forward primer: ACAGATCGTCGGAAAGCAGC (sequence 3), Myf6 reverse primer: CACTCCGCAGAATCTCCACC (sequence 4); Myod forward primer: CATAGACTTGACAGGCCCCG (sequence 5), Myod reverse primer: CGGGTCCAGGTCCTCAAAAA (sequence 6); Myog forward primer: AGCTATCCGGTTCCAAAGCC (sequence 7), Myog reverse primer: GCACAGGAGACCTTGGTCAG (sequence 8); Ppard forward primer: GTATGCGCATGGGACTCACT (sequence 9), Ppard reverse primer: ACTGCCTTTACCGTGGGTTT (SEQ ID NO: 10); Ppargcla forward primer: GTTGCCTGCATGAGTGTGTG (SEQ ID NO: 11), Ppargc1a reverse primer: CACATGTCCCAAGCCATCCA (SEQ ID NO: 12). As a result, the gene expressions of Myf5, Myf6, Myod and Myog, markers of myotube cell differentiation, which were decreased by dexamethasone treatment, were increased by Ponciri Fructus extract treatment, and the gene expressions of Ppard and Pgc1a, markers of motor performance, were increased by Ponciri Fructus extract treatment, as shown in FIGS. 2 and 3.
The effect of auraptene on promoting myotube cell differentiation and exercise performance-related gene expression in C2C12 myotube cells with dexamethasone-induced myoatrophy was analyzed. The assay was performed using the same method as in Example 2.

myotube cells = experiment: Diameter analysis of myotube cells with dexamethasone-induced myoatrophy; format: cell-based, mouse; conditions: auraptene 5, 10, 20 uM; dexamethasone 100 uM; FIG. 15
Procedure: The effect of auraptene (5 uM, 10 uM, 20 uM) on the diameter of myotube cells in which myoatrophy was induced by dexamethasone (100 uM) was analyzed. The results confirmed that the diameter of myotube cells decreased by dexamethasone treatment was restored by auraptene treatment (FIG. 15).

C2C12 myotube cells [3] = experiment: Oxidative stress and mitochondrial function in dexamethasone-treated C2C12 myotube cells; format: cell-based, mouse; conditions: 10 μM dexamethasone 24 hours, then auraptene; FIG. 18
Procedure: C2C12 myoblasts were differentiated into myotube cells as in Example 1, and then treated with 10 μM dexamethasone for 24 hours to induce oxidative stress or mitochondrial dysfunction, and then treated with auraptene to determine its efficacy in improving function.

[4] = system: mice with dexamethasone-induced sarcopenia; experiment: Muscle force in mice with dexamethasone-induced sarcopenia; format: in vivo, C57BL/6J mice; conditions: 4 weeks
Procedure: (§1) C57BL/6J mice (male, 10 weeks old) were obtained from Doo-yeol Biotech, and after 2 weeks of acclimatization, they were divided into 6 test groups (n=10 per group) according to body weight. The test substance was prepared as a liquid suspension using 0.5% CMC, and the test substance was administered for 4 weeks. To compensate for the placebo effect of 0.5% CMC and the weight loss effect caused by the stress of administration, the vehicle control group was administered 0.5% CMC orally daily. Two weeks after treatment, the experimental group received an intraperitoneal injection of dexamethasone for 2 weeks to induce sarcopenia, while the normal control group received an intraperitoneal injection of saline. All mice were fed the same AIN76 diet (Research Diets) and treated with the test compound for an additional 2 weeks for a total of 4 weeks. The dark:light cycle was maintained at a 12 hr:12 hr interval and water was allowed ad libitum.
The changes in muscle force in mice were determined by the same method as in Example 3 above.

[5] = system: mice with dexamethasone-induced sarcopenia; experiment: Weight by muscle types in mice with dexamethasone-induced sarcopenia; format: in vivo, C57BL/6J mice
Procedure: as §1
At the end of a total of 4 weeks of Ponciri Fructus extract administration in Example 3 above, the weight of each type of muscle tissue in all treatment groups was determined.
After a total of 4 weeks of Auraptene administration, the weight of each type of muscle tissue in all treatment groups was determined in Example 8-5 above.

[6] = auraptene 10, 50 mg/kg, 4 weeks, vs dexamethasone-treated group, FIG. 20

## O=c1ccc2ccc(O)cc2o1 [Compound 3, Umbelliferone]
C2C12 myotube cells [1]
  viability of myotube cells reduced by dexamethasone treatment, by isolated compounds: excellently restore

## C/C(=C\COc1ccc2ccc(=O)oc2c1)C/C=C/C(C)(C)OO [Compound 12, 7-O-(7′-peroxygeranyl)coumarin]
C2C12 myotube cells [1]
  viability of myotube cells reduced by dexamethasone treatment, by isolated compounds: excellently restore

## CC(C)C(=O)Cc1c(OCC2OC2(C)C)ccc2ccc(=O)oc12 (stereo not shown) [Compound 9, Isoponcimarin]
C2C12 myotube cells [1]
  viability of myotube cells reduced by dexamethasone treatment, by isolated compounds: excellently restore

## CC(C)=CCC/C(C)=C/COc1ccc2ccc(=O)oc2c1 [Compound 2, Auraptene]
C2C12 myotube cells [1]; 5 uM, 10 uM, 20 uM, all experimental groups, FIG. 14
  viability of myotube cells reduced by dexamethasone treatment, auraptene by concentration: restore
C2C12 myotube cells [1]
  viability of myotube cells reduced by dexamethasone treatment, by isolated compounds: excellently restore
C2C12 myotube cells [1]; listed as auraptene
  viability of myotube cells reduced by dexamethasone treatment, by isolated compounds: best effect
C2C12 myotube cells [2]; FIG. 16
  Myf5 gene expression (myotube cell differentiation marker): increased
  Myod1 gene expression (myotube cell differentiation marker): increased
  Myog gene expression (myotube cell differentiation marker): increased
C2C12 myotube cells [2]; FIG. 17
  Nrf1 gene expression (motor performance marker): increased
  Pparg1a gene expression (motor performance marker): increased
  Tomm20 gene expression (motor performance marker): increased
  UCP3 gene expression (motor performance marker): increased
Myotube cells
  diameter of myotube cells decreased by dexamethasone treatment: restored
C2C12 myotube cells [3]
  glutathione (GSH) content: increased
  mitochondrial dysfunction induced by dexamethasone treatment: improved
[4]; auraptene 10, 50 mg/kg oral once daily, Dexamethasone 20 mg/kg 2 weeks, FIG. 19
  muscle force compared to the dexamethasone-treated group: increased
[5]; [6]
  calf muscle weight: significantly increased
  longissimus dorsi muscle weight: significantly increased
  soleus muscle weight: significantly increased
  thigh muscle weight: significantly increased

## C[C@]12C/C(=C/O)C(=O)C[C@@H]1CC[C@@H]1[C@@H]2CC[C@@]2(C)[C@H]1CC[C@]2(C)O [Oxymetholone, reference compound]
[4]; oral once daily, PT 10, 50, 100 mg/kg, Oxymetholone 50 mg/kg, Dexamethasone 20 mg/kg i.p. 2 weeks, FIGS. 4 and 5
  muscle force compared to the group treated with Dexamethasone alone: increased
[5]; after 4 weeks, PT 10, 50, 100 mg/kg, Oxymetholone 50 mg/kg, vs Dexamethasone group, FIG. 6
  weight of quadriceps muscle: significantly increased
[5]; after 4 weeks, PT 10, 50, 100 mg/kg, Oxymetholone 50 mg/kg, vs Dexamethasone group, FIG. 7
  weight of gastrocnemius muscle: significantly increased
[5]; after 4 weeks, PT 10, 50, 100 mg/kg, Oxymetholone 50 mg/kg, vs Dexamethasone group, FIG. 8
  weight of tibialis muscle: significantly increased
